Measurements: patent US5321037A, “Isoxazole derivatives for use as cerebro-active drugs and central muscle relaxants” (Sankyo Company, Limited, priority 1986, dated 1994)

Columns and labels:
[1] = test system: decerebrate rigidity in rats; test: Suppression of decerebrate rigidity in rats; type: in vivo, rat
Text: The suppression of decerebrate rigidity in laboratory animals, such as rats, is a well known model for control of human spasticity and/or rigidity.
In the test method, a rat was anesthetized with halothane and fixed on a stereotaxic apparatus (SR-5, Narishige). In accordance with the brain atlas by Pellegrino et al., [L. J. Pellegrino, A. S. Pellegrino & A. J. Cushman: A Stereotaxic Atlas of the Rat Brain, Plenum Press, New York and London (1967)], an electrode 0.7 mm in diameter, which was insulated except for 1 mm at the tip, was inserted bilaterally into the midbrain reticular formation (AP: 0, L: ±1.5, H: -3.0). A clip serving as the reference electrode was fixed on the temporal muscle. Through these electrodes, a high frequency electric current (100 KHz, 10 to 20 mA) was applied from a lesion generator (Glass Co., LM4A) for 2 to 3 minutes to cauterize electrically this brain region.
The rat was then immediately set free from the stereotaxic apparatus. A polyethylene cannula was inserted into the duodenum and fixed with an acrylic resin (Aron Alfa, Sankyo Co., Ltd.). After completion of these operations, halothane anesthesia was immediately discontinued.
After 1.5 hours, when the animal awoke from the anesthesia, the rat was fixed on an apparatus devised in our laboratory for a hind leg fixation. Both hind legs were fixed at the anterior part of the ankle joints. Both hindlimb paws were then pushed in 4 mm for 6 seconds in every minute. The resulting repulsive tension was drawn on a polygraph through a strain gauge.
The test compounds were suspended in a 0.5% w/v CMC (carboxymethyl cellulose) aqueous solution and were administered orally (p.o.) or intraperitoneally (i.p.).
The results are summarized in the following Table 7, where the compounds of the present invention are identified by the number of the foregoing Example in which each was prepared, Compound X is the known compound eperisone hydrochloride, and Compound Y is the known compound afloqualone.

[2] = test system: ischemia-induced neurological symptoms in SHR SP; test: Improvement in ischemia-induced neurological symptoms in Spontaneously Hypertensive Rats Stroke Prone (SHR SP) caused by ligation of the bilateral common carotid arteries; type: in vivo, rat (SHR SP)
Experimental: The test animals employed were male adult SHR SPs (13 or 15 weeks old). They were used in groups each consisting of about 10 animals. Under halothane anesthesia, both common carotid arteries of each animal were ligated to prepare a brain ischemia model. The halothane anesthesia was stopped immediately after the ligation, and then the time taken to recover the righting reflex, the onset time of convulsions and the survival time were determined. The test solution was prepared in the same manner as described in Experiment 1 and was administered to the animal intraperitoneally 30 minutes before the ligation. A 0.5% CMC solution was administered to the control group in the same manner. The statistical analysis was carried out in a similar manner to that in Experiment 1. The statistical analysis of the survival rate was carried out by the X^2 test.

[3] = test system: survival time under hypoxic conditions; test: Effect on survival time under hypoxic conditions; type: in vivo, mouse (ddY strain); conditions: 4% oxygen, 96% nitrogen
Text: The test animals employed were male adult mice (5 weeks old and about 30 g body weight) of the ddY strain. The animals were employed in groups, each containing from 7 to 17 animals. Each animal was given intraperitoneally a test compound in suspension (as in the preceding Experiments). Thirty (30) minutes after this administration, 2 or 3 animals were placed in a 1.5 liter gas chamber made of acrylate resin, and a mixture of 4% by volume oxygen and 96% nitrogen was supplied at the rate of 10 liters/minute. The time of death of the animal was measured (determined by the cessation of respiration).

[4] = test system: ischemia-induced neurological symptoms in the Mongolian Gerbil; test: Improvement of ischemia-induced neurological symptoms in the Mongolian gerbil caused by ligation of the bilateral common carotid arteries for 30 minutes; type: in vivo; conditions: 100 mg/kg i.p. upon recommencement of blood flow
Experimental: The test animals employed were male adult Mongolian gerbils (16-20 weeks old). These were used in groups each consisting of from 10 to 20 animals. The bilateral common carotid arteries were occluded for 30 minutes under anesthesia with pentobarbital (30 mg/kg, intraperitoneally) and halothane (it was introduced to a mixture of 95% oxygen and 5% carbon dioxide at a concentration of 1.5% by volume) and then the occlusion was released to allow the blood to flow. The animal was then placed in a supine position, and we measured (1) the time taken from recommencement of blood flow until convulsions occurred and (2) the survival time. Observations to determine the onset time of convulsions and the survival time were continued for 6 and 7 hours, respectively, after recommencement of blood flow. […] The compound to be tested was suspended in a 0.5% w/v carboxymethyl cellulose (CMC) aqueous solution and administered intraperitoneally upon recommencement of blood flow in the common carotid arteries. On the other hand, a 0.5% CMC solution containing no test compound was administered likewise to a control group. Statistical analysis was carried out using the Mann-Whitney U-test between the control group and the test group.

[5] = 30 mg/kg i.p. 30 minutes before ligation
[6] = 100 mg/kg i.p. 30 minutes before ligation

Row | Structure (SMILES) | Onset time of convulsions and survival time, in words ([2]; 30 mg/kg) | Onset time of convulsions [2, 5] | Recovery time of righting reflex [2, 5] | Survival rate [2, 5] | Survival time [2, 5] | Onset time of convulsions and survival time, in words ([2]; 100 mg/kg) | Onset time of convulsions [2, 6] | Recovery time of righting reflex [2, 6] | Survival rate [2, 6] | Survival time [2, 6] | Survival time ([3]; 30 mg/kg i.p.) | Survival time ([3]; 100 mg/kg i.p.) | also measured
1 | NC(=O)OCC(O)COc1noc2ccc(Cl)cc12 (stereo not shown) [Example 3, 3-(3-Carbamoyloxy-2-hydroxypropoxy)-5-chloro-1,2-benzisoxazole] | prolonged onset time of convulsions, survival time significantly | 106.5 ± 9.9 min | 7.1 ± 0.9 min | 80.0% | 392.2 ± 21.2 min | prolonged onset time of convulsions, survival time significantly | 306.9 ± 17.1 min | 36.3 ± 16.7 min | 100% | 420.0 ± 0.0 min | 213.0 ± 27.5 s | 446.7 ± 36.9 s | Duration of the effect ([1]; 20 mg/kg p.o.): > 90 min; Onset of the effect ([1]; 20 mg/kg p.o.): 5 min; Duration of the effect ([1]; 30 mg/kg p.o.): > 90 min; Onset of the effect ([1]; 30 mg/kg p.o.): 5 min; Duration of the effect ([1]; 100 mg/kg p.o.): > 90 min; Onset of the effect ([1]; 100 mg/kg p.o.): 5 min; inhibition in vivo at 20 mg/kg ([1]; Rattus norvegicus, po, 20 mg/kg p.o., read-out: Maximum inhibition): 60%; inhibition in vivo at 30 mg/kg ([1]; Rattus norvegicus, po, 30 mg/kg p.o., read-out: Maximum inhibition): 90%; inhibition in vivo at 100 mg/kg ([1]; Rattus norvegicus, po, 100 mg/kg p.o., read-out: Maximum inhibition): 90%; Survival rate of ischemic animals, in words ([2]; 100 mg/kg): increased survival rate of ischemic animals
2 | NC(=O)OCC(O)COc1cc(-c2cccc(Cl)c2)on1 (stereo not shown) [Example 4, 3-(3-Carbamoyloxy-2-hydroxypropoxy)-5-(m-chlorophenyl)isoxazole] |  |  |  |  |  | prolonged onset time of convulsions, survival time significantly | 97.6 ± 18.0 min | 10.1 ± 1.8 min | 44.4% | 322.4 ± 34.8 min |  | 178.9 ± 15.0 s | Onset time of convulsions [4]: 233.9 min; Recovery time of righting reflex [4]: 115.7 min; Survival time [4]: 344.2 min
3 | Cl.OC(COc1cc(-c2ccccc2)on1)CN1CCOCC1 (stereo not shown) [Example 20, 3-(2-Hydroxy-3-morpholinopropoxy)-5-phenylisoxazole hydrochloride] | prolonged onset time of convulsions, survival time significantly | 71.9 ± 9.3 min | 6.5 ± 0.6 min | 36.4% | 295.9 ± 32.3 min | prolonged onset time of convulsions, survival time significantly | 176.7 ± 25.8 min | 6.9 ± 0.9 min | 63.6% | 371.9 ± 26.3 min | 124.6 ± 15.4 s | 349.5 ± 59.1 s | 
